Experimental data reported in US20070111318A1 (priority 2003, published 2007).

Tested on: ddY mice
Conditions: mouse, in vivo, ip

For C=C(C[C@@H]1C[C@H](O)[C@]2(C)O[C@@H]3C[C@@H]4O[C@@H]5C[C@]6(C)O[C@]7(C)CC[C@@H]8O[C@@H]9C[C@]%10(C)O[C@@H]%11C(C)=CC(=O)O[C@H]%11C[C@H]%10O[C@H]9C[C@@H](C)[C@H]8O[C@H]7C[C@H]6O[C@@]5(C)C/C=C\[C@H]4O[C@H]3C[C@H]2O1)C(=O)O [BTX-B5, brevetoxin B5], the symptoms after injection was “symptoms of neurotoxicity extremely similar to those caused by other brevetoxins”.
